The text below walks through data of patent US7053194B2, “Compositions and methods for p53-mediated repression of gene expression” (Fox Chase Cancer Center, priority 1999, dated 2006).

Square brackets hold non-standard residues; d marks the D form. Peptide text beside a SMILES is read from it. Nle = CCCC[C@H](N)C(=O)O

Experiment [1] has as its system H1299 human lung adenocarcinoma. Kind of experiment: Northern analysis of stathmin mRNA in p53-null cells. Format: cell-based. To be noted: H1299, null for p53.
The subject of experiment [2] is A2780 cells. Kind of experiment: Northern analysis of stathmin mRNA after adriamycin treatment. In kind it is cell-based, human. To be noted: A2780, co-incubation with TSA, data not shown. How it is done:
(§1) Sub-confluent cultures of MCF 7 and A2780 cells were treated with 100 nM trichostatin A (TSA, Sigma)for 2 hours, followed by incubation with 0.5 ug/ml adriamycin (doxorubicin, Sigma) for the indicated timepoints. Va15 cells grown at 39 degrees were treated with 100 nM TSA for two hours, followed by temperature shift to 32 degrees for 12 hours. p53 induction was monitored by western analysis of 100 ug protein as described (Murphy et al., Genes & Devel. 10:2971–2980, 1996), using 0.1ug/ml DO-1 (Ab-6, Calbiochem) or 421 (Ab-1, Calbiochem). MDM2 induction was monitored using the monoclonal antibody 2A10, kindly provided by Arnold Levine (Rockefeller University). For UV treatments, cells were irradiated with 4 J/m2 of UV-C with a Spectroline X series ultraviolet lamp, and output was monitored with a traceable UV light meter (Fisher Scientific). For ALLN treatment, MCF-7 cells were treated with 50 uM ALLN (calpain I inhibitor, Sigma) made in DMSO (dimethyl sulfoxide, Sigma) or with DMSO alone for 2 hours prior to harvesting.
(§2) Total RNA was isolated from cells using CsC1 purification (Murphy et al., Genes & Devel. 10:2971–2980, 1996) or using Trizol, as per the manufacturer (Gibco/BRL). Northern analyses were performed as described (Murphy et al., Genes & Devel. 10:2971–2980, 1996). Probes for Northerns were radio labeled using random primers (Prime-It-II, Stratagene) and α^32P dCTP (NEN). Autoradiographs were quantitated using NIH image software. The average values from three independent experiments were plotted onto bar graphs following normalization to GAPDH.
(§3) To extend these observations, the human tumor derived cell lines MCF7 (breast carcinoma)and A2780 (ovarian carcinoma) were analyzed following treatment with adriamycin to activate the endogenous, wild type p53 protein. Because of difficulties detecting human Map4 message, we analyzed the mRNA levels of stathmin (also called oncoprotein 18). We recently identified stathmin as a p53-repressed gene. A time course of treatment of MCF-7 cells with the DNA-damaging agent adriamycin (doxorubicin, DOX) results in approximately 30% reduction of stathmin RNA levels after 8 hours and 75% reduction after 24 hours. We chose to focus further on the 12 hour timepoint of adriamycin treatment, where 50% repression of stathmin was evident, in order to limit the toxicity sometimes associated with TSA (Yoshida et al., J Biol Chem 265:17174–17179, 1990). […] The results of three independent experiments indicate that the repression of stathmin expression evident after 12 hours of adriamycin treatment is completely abrogated by incubation with TSA. In contrast, neither the post-translational stabilization of p53 by adriamycin (DOX) nor the induction of the p53 response genes mdm2 and p21/waf1 were affected by TSA. […] We have performed identical experiments in A2780 cells (ovarian carcinoma, wt p53).

Experiment [3] deals with MCF-7 cells. Described as above. Format: cell-based, human. How it is done: as §1, §2, §3
Experiment [4] concerns Vm10 cells. Description: AMC caspase assay specific for caspase 3 (apoptosis). Format: cell-based, murine. How it is done:
Apoptosis was quantitated using the AMC caspase assay specific for caspase 3 (Pharmingen). Vm10 cells were grown at 39 degrees or temperature-shifted to 32 degrees for 24 hours in the presence or absence of 100 nM trichostatin A (TSA). Vm10 cells at 39 degrees were treated with staurosporine (Calbiochem) at 100 nM, or dilution vehicle (dimethyl sulfoxide), or tumor necrosis factor alpha plus cycloheximide (10 ng/mL TNFα, RD Systems, plus 40 ug/mL cycloheximide, Sigma). Cells were harvested, lysed, and lysate was monitored for the caspase-3-dependent hydrolysis of the fluorogenic substrate Ac-DEVD-AMC, according to protocols derived from the manufacturer (Pharmingen). As a control for non-specific proteolysis, lysates from 39 degrees and 32 degrees were also assayed in the presence of the caspase-3 inhibitor Ac-DEVD-CHO (N-acetyl-Asp-Glu-Val Asp-aldehyde, Pharmingen). Fluorescence emissions were quantified on a spectrofluorometer (VersaFluor Cuvette Fluorometer) with excitation wavelength of 360 nm. and emission of 460 nm. The data presented represent duplicate readings of the averaged values from two (TNFα and staurosporine) or three (temperature shift) independent experiments.
In order to assess the contribution of p53-mediated repression to apoptosis, we utilized the cell line Vm10. This murine cell line contains a stably-transfected p53 gene encoding a temperature-sensitive protein, as well as a constitutively expressed c-myc proto-oncogene; the characteristics of this line, and its ability to undergo apoptosis at 32 degrees, have been described (Chen et al., Mol Med 1:142–152, 1996). Temperature shift and wt p53 induction of these cells results in a significant increase in caspase-3 dependent AMC-DEVD hydrolysis, a read-out for apoptosis, as measured in a spectrofluorometric assay. […] Therefore, the ability of TSA to inhibit apoptosis is specific for p53-dependent apoptosis.

The test system of experiment [5] is Vm10 cells. Kind of experiment: Flow cytometry of sub-G1 population. In kind it is cell-based, murine. To be noted: Vm10 at 32 degrees (wt p53), 100 nM TSA, data not shown. A general note: Flow cytometry measures light scatter and fluorescence of single cells or particles in a stream.
Experiment [6] deals with Va15 cells. Kind of experiment: Flow cytometric analysis of cell cycle distribution. Format: cell-based, murine. The settings on record: Va15 cells cultured at 32 degrees, TSA treatment, data not shown.
Experiment [7] concerns Va15 cells. Description: Northern analysis of Map4 mRNA after p53 induction by temperature shift. Format: cell-based, murine. The settings on record: temperature shift to 32 degrees (wt p53), 100 nM TSA. How it is done:
as §1
Total RNA was isolated from cells using CsC1 purification (Murphy et al., Genes & Devel. 10:2971–2980, 1996) or using Trizol, as per the manufacturer (Gibco/BRL). Northern analyses were performed as described (Murphy et al., Genes & Devel. 10:2971–2980, 1996). […] Autoradiographs were quantitated using NIH image software. […]

Experiment [8] relates to Va15 cells. Description: Western analysis of survivin in nocodazole-arrested cells. To be noted: Va15 at 39 degrees, nocodazole alone, twenty-four hours. In kind it is cell-based, murine. How it is done:
Western analysis was performed essentially as described (Murphy et al., 1999). Briefly, subconfluent cells were harvested and lysed in RIPA buffer (50 mM Tris at pH 7.4, 150 mM NaCl, 1% Triton X-100, 0.1% SDS, and 1% sodium deoxycholate) supplemented with protease inhibitors (1 mM PMSF, […], […], and […]). Protein concentrations were determined using the Bio-Rad Dc Protein Assay (Bio-Rad). Equal amounts of protein (between 50 and 120 ugs) were run on 10% or 12% SDS-polyacrylamide gels and transferred overnight onto PVDF membrane (Bio-Rad). Western blots were incubated in antibody in 5% nonfat dry milk in phosphate-buffered saline supplemented with 0.2% Tween 20 (PBST). Blots were incubated with primary antibody at the following dilutions: p53 Ab-6 (Calbiochem) 1:1000, actin, AC-15 (Sigma) at 1:5000, p21/waf1 (Calbiochem) 1:1000 and survivin (Novus) 1:1000. Blots were washed with PBST and incubated in horseradish peroxidase-linked secondary antibody (Jackson ImmunoResearch Laboratories) and developed via the chemiluminescence protocol provided by the manufacturer (NEN).
Va15 cells (temperature-sensitive p53 which is wild type at 32 degrees) were grown at 39 degrees (mutant p53, asynchronous growth), and arrested in G2/M following twenty-four hours of nocodazole treatment. […]

Experiment [9] has as its system MCF-7 cells. Kind of experiment: Immunoprecipitation-western analysis of p53 and p53-mSin3a complexes. Format: cell-based, human. To be noted: MCF-7, 50 uM ALLN, 2 hours. How it is done:
as §1
Sub-confluent cultures of cells were harvested and lysed in NP-40 buffer supplemented with protease inhibitors (1 mM PMSF, 10 ug/ml pepstatin A, 10 ug/ml aprotinin, and 5ug/ml leupeptin). Protein concentrations were determined by the method of Bradford (BioRad). Equal ug amounts of protein (between 2.0 and 3.0 mg) were immunoprecipitated with 1 ug of each antibody, except for Va15 immunoprecipitations, which used 1000 ug protein, as described (Murphy et al., Genes & Devel. 10:2971–2980, 1996). For p300, antibody N15 (Santa Cruz Biotechnology) and AB-1 (Calbiochem) yielded similar results. Each IP was washed twice in NP-40 buffer (Wu, et al., Genes & Devel. 7:1126–1132, 1993), followed by 2 washes in RIPA buffer (50 mM Tris pH 7.4/150 mM NaCl/1% Triton X 100/0.1% SDSI 1% Na deoxycholate). Immunoprecipitations were run on 7.5–10% SDS-PAGE gels and transferred overnight onto Immuno-Blot PVDF membrane (BioRad). […]
These complexes persisted under stringent washing conditions (RIPA buffer washes, see Materials and Methods), and were not present using control antisera (rabbit IgG, lane 1). […] We next analyzed the p53-mSin3a interaction following post-translational stabilization of p53 mediated by DNA damaging agents. […]
We next analyzed the time-course of the p53-mSin3a interaction following exposure of cells to the DNA damaging agent adriamycin (doxorubicin). Both p53-mSin3a and p53 p300 complexes were monitored by IP-western analysis in a time course following adriamycin treatment of MCF-7 cells. As a control, p53 was immunoprecipitated using polyclonal antisera generated against full-length p53 (Santa Cruz Biotechnology). p53 levels were also assessed at each time point by western analyses (data not shown). […]

On to `CC(/C=C/C(=O)NO)=C\[C@@H](C)C(=O)c1ccc(N(C)C)cc1` [TSA, trichostatin A], for which the “effect on stathmin levels” value in experiment [1] is “neither TSA nor adriamycin had any effect on stathmin levels”. For the same compound, the “effect on adriamycin-induced repression of stathmin” value in [2] is given as “abrogate completely this repression”. Moreover, the “effect on stathmin levels, TSA alone” value in experiment [3] (MCF-7, 100 nM TSA alone) is “undetectable effects on stathmin levels”. Also, in [3] (MCF-7, 100 nM TSA plus adriamycin 12 hours), the “effect on reduction of stathmin levels following adriamycin treatment” value is on record as “completely abrogate the reduction of stathmin levels”. In addition, the “inhibition of caspase-3-dependent AMC hydrolysis” value in experiment [4] (Vm10 at 32 degrees (wt p53), 100 nM TSA, 24 hours) is “greater than 4 fold”. Also, the “inhibition of apoptosis induced by staurosporine or tumor necrosis factor alpha” value in [4] (Vm10 at 39 degrees (mutant p53), TSA treatment) is reported as “unable to significantly inhibit apoptosis”. In addition, in experiment [5], the sub-G1 population result is reported as “reduces the sub-G1 population”. Moreover, in experiment [6], the cell cycle distribution result was “did not alter the cell cycle distribution”. In addition, the “Map4 RNA levels, % of starting levels” value in experiment [7] is “approximately 80%”.

Regarding “N-acetyl-Asp-Glu-Val Asp-aldehyde [Ac-DEVD-CHO]”, the “AMC cleavage in lysate with caspase-3 inhibitor added” value in experiment [4] (Vm10 lysate, addition of Ac-DEVD-CHO) was “negligible AMC cleavage”.

In the case of `COC(=O)Nc1nc2ccc(C(=O)c3cccs3)cc2[nH]1` [nocodazole], the survivin expression result in experiment [8] is listed as “increased survivin expression”.

For `CCCC[C@@H](C=O)NC(=O)[C@H](CC(C)C)NC(=O)[C@H](CC(C)C)NC(C)=O` [ALLN] (Ac-Leu-Leu-[Nle]-aldehyde), in experiment [9], the “increase in p53 protein” value is “approximately 4 fold” and the “increase in the p53-mSin3a complex” value is “undetectable increase in the p53-mSin3a complex”.
